Reference: PubChem BioAssay (NCI)
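Five compound concentrations were applied to cells in 96-well plates for 48 hours; endpoints were derived by simple linear interpolation of the resulting dose-response curve. TGI: concentration producing complete growth inhibition.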

How the values were obtained:
Assay in all cases: inhibition of tumour cell growth, NCI panel, 48 h
BT-549 breast = system: BT-549 breast
EKVX NSCLC = system: EKVX NSCLC
HL-60(TB) leukemia = system: HL-60(TB) leukemia
HOP-62 NSCLC = system: HOP-62 NSCLC
HT29 colon = system: HT29 colon
OVCAR-4 ovarian = system: OVCAR-4 ovarian
OVCAR-8 ovarian = system: OVCAR-8 ovarian
SK-MEL-5 melanoma = system: SK-MEL-5 melanoma
TK-10 renal = system: TK-10 renal
UACC-62 melanoma = system: UACC-62 melanoma

SMILES	TGI (BT-549 breast) [µM]	TGI (EKVX NSCLC) [µM]	TGI (HL-60(TB) leukemia) [µM]	TGI (HOP-62 NSCLC) [µM]	TGI (HT29 colon) [µM]	TGI (OVCAR-4 ovarian) [µM]	TGI (OVCAR-8 ovarian) [µM]	TGI (SK-MEL-5 melanoma) [µM]	TGI (TK-10 renal) [µM]	TGI (UACC-62 melanoma) [µM]
O=C1/C(=C/c2ccc(Br)s2)NC(=S)N1CN1CCCCC1	96.8	> 100	50	> 100	> 100	> 100	> 100	23.8	> 100	> 100
Nc1nccc(NCC2(CO)CC(CCc3ccccc3)C2)n1 (stereo not given)	40.3	46.9	34.4	38	23.9	47.2	69.4	16.9	25.5	28.5
Cc1nc2ccc(N=Nc3c(C)noc3C)cc2[nH]1	> 100	> 100	61.6	> 100	71.1	> 100	89.6	29.8	> 100	75.9
COc1ccc(NC(=S)c2ccc([N+](=O)[O-])o2)cc1	4.69	7.78	5.89	8.26	3.7	3.07	13.1	13.1	9.84	3.47
CC(C)C(=O)Cc1ccc2ccccc2n1	> 100	> 100	> 100	> 100	> 100	> 100	> 100	> 100	> 100	> 100
N/C(=N\N=C\c1nc2ccccc2o1)c1cnccn1	> 100	> 100	> 100	> 100	> 100	> 100	> 100	> 100	> 100	> 100
COc1ccc(OC)c(/C=C2/C(=O)N=C(NC(C)=O)N2C)c1	> 100	> 100	> 100	> 100	> 100	> 100	> 100	> 100	> 100	> 100
O[C@@H]1[C@H](OC2c3ccccc3-c3ccccc32)[C@H](OCc2ccccc2)[C@@H]2OC[C@H]1O2	> 100	> 100	> 100	80	> 100	> 100	> 100	> 100	> 100	> 100
CC(C)=CCC[C@@H](C)C1=C(N)C(O)=C(C)C(=O)C1=O	> 75	> 75	39.5	> 75	> 48	> 75	> 61.2	> 75	> 75	> 75
NC1=C(c2nc(-c3ccccc3)cs2)C(c2ccco2)c2c(c3ccccc3oc2=O)O1 (stereo not given)	> 100	> 100	> 100	> 100	> 100	> 100	> 100	> 100	> 100	> 100
CO/C(N)=C(\C#N)N=Cc1ccsc1	69.7	> 100	45.9	> 100	> 100	> 100	> 100	> 100	> 100	> 100
C#CCN(C(=O)C(F)(F)F)C(/C=C\C(=O)OC)(C(=O)OCC)C(=O)OCC	> 100	> 100	> 100	> 100	> 100	> 100	> 100	> 100	> 100	> 100
COC(=O)c1c(C)cccc1C1CN=NC12Cc1cc(C)c(C)cc1C2=O (stereo not given)	> 100	> 100	45.5	> 100	> 100	> 100	> 100	46.3	> 100	> 100
COc1cc(S(=O)(=O)Nc2nc(-c3ccc(N=Cc4ccccc4O)cc3)cs2)ccc1Cl	> 100	86.8	> 100	> 100	> 100	> 100	> 100	71.5	> 100	75.9
CC1=C(C(=O)NNC(=O)C[N+](C)(C)C)CC(C(=O)NNC(=O)C[N+](C)(C)C)=C(C)N1	> 100	> 100	> 100	> 100	> 100	> 100	> 100	> 100	> 100	> 100
Fc1ccc2c(c1)SC1=Nc3sc4cc(F)ccc4[n+]3CN12	43.6	79	0.184	56.1	> 100	72.4	38	28.2	42.7	33.1
CCc1nc(N)nc(N)c1-c1ccc(N2CCOCC2)c(N=[N+]=[N-])c1	> 100	> 100	> 79.2	> 100	> 100	> 100	> 100	> 100	> 100	> 100
